Experimental data as given in ChEMBL document CHEMBL4118122, “Identification and biological evaluation of thiazole-based inverse agonists of RORγt” (Bioorg Med Chem Lett, 2018).

Legend:
[1] = molecular target: T1, Nuclear receptor ROR-gamma (Homo sapiens, UniProt P51449); experiment: Inverse agonist activity at RORgammat in human CD4 positive T cells assessed as inhibition of IL17A production in human Th17 cells after 1 hr; assay type: cell-based
T1 sequence (P51449 whole entry): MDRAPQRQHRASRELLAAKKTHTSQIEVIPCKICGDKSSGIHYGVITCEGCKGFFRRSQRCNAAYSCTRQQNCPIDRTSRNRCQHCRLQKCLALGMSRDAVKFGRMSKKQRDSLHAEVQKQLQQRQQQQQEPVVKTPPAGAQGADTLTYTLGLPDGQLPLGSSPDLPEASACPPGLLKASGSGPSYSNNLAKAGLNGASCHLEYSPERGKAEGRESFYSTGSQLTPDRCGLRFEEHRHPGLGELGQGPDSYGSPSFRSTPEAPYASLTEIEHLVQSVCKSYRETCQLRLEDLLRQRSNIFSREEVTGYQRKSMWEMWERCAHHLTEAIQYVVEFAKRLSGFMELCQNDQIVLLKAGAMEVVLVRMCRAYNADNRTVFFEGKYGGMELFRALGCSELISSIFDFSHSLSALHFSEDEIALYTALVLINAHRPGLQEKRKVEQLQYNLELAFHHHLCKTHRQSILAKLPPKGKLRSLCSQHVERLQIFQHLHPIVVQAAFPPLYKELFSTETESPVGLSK

[2] = molecular target: Adrenergic receptor alpha-2 (Rattus norvegicus) (UniProt P22086+P19328+P22909); experiment: Displacement of [3H]-RX 821002 from rat alpha2 adrenoceptor at 10 uM after 60 mins by scintillation counting analysis relative to control; assay type: protein assay
[3] = molecular target: Type-1 angiotensin II receptor (Homo sapiens) (UniProt P30556); experiment: Displacement of [125I][Sar1,Ile8]-AT-II from human recombinant AT1 receptor at 10 uM after 120 mins by scintillation counting analysis relative to control
Rattus norvegicus [4] = organism: Rattus norvegicus; experiment: Displacement of [3H]flunitrazepam from rat brain central BZD at 10 uM after 60 mins relative to control
[5] = molecular target: Cholecystokinin receptor type A (Homo sapiens) (UniProt P32238); experiment: Displacement of [125I]CCK-8s from human recombinant CCK1 receptor at 10 uM after 60 mins by scintillation counting analysis relative to control
[6] = molecular target: Muscarinic acetylcholine receptor M2 (Homo sapiens) (UniProt P08172); experiment: Displacement of [3H]AF-DX 384 from human recombinant M2 receptor at 10 uM after 60 mins by scintillation counting analysis relative to control
[7] = molecular target: Neuropeptide Y receptor type 1 (Homo sapiens) (UniProt P25929); experiment: Displacement of [125I]peptide YY from human Y1 receptor at 10 uM after 120 mins by scintillation counting analysis relative to control
[8] = molecular target: T2, Small conductance calcium-activated potassium channel (Rattus norvegicus) (UniProt P70604+P70606+P70605); experiment: Displacement of [125I]apamin from rat brain SkCa channel at 10 uM after 60 mins by scintillation counting analysis relative to control
Rattus norvegicus [9] = organism: Rattus norvegicus; experiment: Displacement of [3H]batrachotoxinin from rat brain voltage gated sodium ion channel site 2 at 10 uM after 60 mins by scintillation counting analysis relative to control
[10] = molecular target: Adenosine receptor A3 (Homo sapiens) (UniProt P0DMS8); experiment: Displacement of [125I]AB-MECA from human recombinant adenosine A3 receptor at 1 uM after 120 mins by scintillation counting analysis relative to control
[11] = molecular target: Neuromedin-K receptor (Homo sapiens) (UniProt P29371); experiment: Displacement of [3H]SR 142801 from human recombinant NK3 receptor at 1 uM after 120 mins by scintillation counting analysis relative to control
[12] = molecular target: Delta-type opioid receptor (Homo sapiens, UniProt P41143); experiment: Displacement of [3H]DADLE from human recombinant delta opioid receptor at 1 uM after 60 mins by scintillation counting analysis relative to control
[13] = molecular target: 5-hydroxytryptamine receptor 2B (Homo sapiens, UniProt P41595); experiment: Displacement of [125I]+/-DOI from human recombinant 5-HT2B receptor at 1 uM after 60 mins by scintillation counting analysis relative to control
[14] = molecular target: 5-hydroxytryptamine receptor 3A (Homo sapiens) (UniProt P46098); experiment: Displacement of [3H]BRL 43694 from human recombinant 5-HT3 receptor at 1 uM after 120 mins by scintillation counting analysis relative to control
Vasopressin V1a receptor = Vasopressin V1a receptor (Homo sapiens, UniProt P37288); experiment: Displacement of [3H]AVP from human recombinant V1a receptor at 1 uM after 60 mins by scintillation counting analysis relative to control
[15] = molecular target: T2, Small conductance calcium-activated potassium channel (Rattus norvegicus); experiment: Displacement of [125I]apamin from rat brain SkCa channel at 1 uM after 60 mins by scintillation counting analysis relative to control
Homo sapiens = organism: Homo sapiens; experiment: Binding affinity to GABA-gated chloride channel (unknown origin) at 1 uM by antagonist radioligand binding assay relative to control
[16] = molecular target: Beta-1 adrenergic receptor (Homo sapiens, UniProt P08588); experiment: Displacement of [3H](-)CGP 12177 from human beta1 adrenoceptor after 60 mins by scintillation counting analysis
D(2) dopamine receptor = D(2) dopamine receptor (Homo sapiens, UniProt P14416); experiment: Displacement of [3H]7-OH-DPAT from human recombinant dopamine D2S receptor after 60 mins by scintillation counting analysis
Histamine H1 receptor = Histamine H1 receptor (Homo sapiens, UniProt P35367); experiment: Displacement of [3H]pyrilamine from human recombinant histamine H1 receptor after 60 mins by scintillation counting analysis
Substance-K receptor = Substance-K receptor (Homo sapiens, UniProt P21452); experiment: Displacement of [125I]NKA from human recombinant NK2 receptor after 60 mins by scintillation counting analysis
[17] = Binding affinity to GABA-gated chloride channel (unknown origin) by antagonist radioligand binding assay; parameters: species or system Homo sapiens
[18] = molecular target: Cyclin-dependent kinase 5/CDK5 activator 1 (Homo sapiens) (UniProt Q00535+Q15078); experiment: Inhibition of recombinant full length His-tagged human CDK5/p35 expressed in baculovirus expression system at 10 uM in presence of ATP relative to control
[19] = molecular target: Epidermal growth factor receptor (Homo sapiens) (UniProt P00533); experiment: Inhibition of recombinant GST-tagged human EGFR (668 to 1210 residues) expressed in baculovirus expression system at 10 uM in presence of ATP relative to control
[20] = molecular target: Glycogen synthase kinase-3 alpha (Homo sapiens) (UniProt P49840); experiment: Inhibition of GSK3alpha (unknown origin) at 10 uM in presence of ATP relative to control
[21] = molecular target: Insulin receptor (Homo sapiens) (UniProt P06213); experiment: Inhibition of recombinant His-tagged human InsR (1011 to 1382 residues) expressed in baculovirus expression system at 10 uM in presence of ATP relative to control
Cytochrome P450 2C19 = Cytochrome P450 2C19 (Homo sapiens, UniProt P33261); experiment: Inhibition of CYP2C19 (unknown origin); assay type: ADME
[22] = Initial plasma concentration in Sprague-Dawley rat at 1 mg/kg, iv; assay type: ADME, organism-based
[23] = Tmax in Sprague-Dawley rat at 5 mg/kg, po; assay type: ADME, organism-based; details: in vivo

Cholecystokinin receptor type A (Homo sapiens), sequence (P32238 whole entry): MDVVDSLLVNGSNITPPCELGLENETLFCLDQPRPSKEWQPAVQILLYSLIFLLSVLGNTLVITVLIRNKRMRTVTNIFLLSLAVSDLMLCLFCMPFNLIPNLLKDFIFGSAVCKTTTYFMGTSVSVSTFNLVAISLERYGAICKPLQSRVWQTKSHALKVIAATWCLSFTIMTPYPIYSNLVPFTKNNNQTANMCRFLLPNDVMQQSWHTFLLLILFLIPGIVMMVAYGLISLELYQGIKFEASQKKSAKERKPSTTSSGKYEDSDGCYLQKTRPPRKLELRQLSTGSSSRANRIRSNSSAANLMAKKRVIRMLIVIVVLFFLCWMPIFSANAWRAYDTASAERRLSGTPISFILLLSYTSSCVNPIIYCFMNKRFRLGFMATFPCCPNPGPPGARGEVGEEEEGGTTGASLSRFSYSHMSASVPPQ
Beta-1 adrenergic receptor, sequence (P08588 whole entry): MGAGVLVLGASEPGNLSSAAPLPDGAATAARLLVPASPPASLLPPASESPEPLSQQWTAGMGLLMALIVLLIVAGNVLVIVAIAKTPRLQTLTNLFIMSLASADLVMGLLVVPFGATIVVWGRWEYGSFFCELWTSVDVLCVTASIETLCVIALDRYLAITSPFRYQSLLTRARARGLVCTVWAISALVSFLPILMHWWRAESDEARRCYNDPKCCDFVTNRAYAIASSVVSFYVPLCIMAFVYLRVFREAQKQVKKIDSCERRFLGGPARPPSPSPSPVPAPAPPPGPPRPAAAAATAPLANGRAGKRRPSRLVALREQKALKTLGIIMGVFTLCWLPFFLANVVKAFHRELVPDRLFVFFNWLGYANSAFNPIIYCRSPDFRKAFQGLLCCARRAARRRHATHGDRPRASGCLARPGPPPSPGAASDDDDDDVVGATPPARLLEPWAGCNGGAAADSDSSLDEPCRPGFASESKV
Muscarinic acetylcholine receptor M2 (Homo sapiens), sequence (P08172 whole entry): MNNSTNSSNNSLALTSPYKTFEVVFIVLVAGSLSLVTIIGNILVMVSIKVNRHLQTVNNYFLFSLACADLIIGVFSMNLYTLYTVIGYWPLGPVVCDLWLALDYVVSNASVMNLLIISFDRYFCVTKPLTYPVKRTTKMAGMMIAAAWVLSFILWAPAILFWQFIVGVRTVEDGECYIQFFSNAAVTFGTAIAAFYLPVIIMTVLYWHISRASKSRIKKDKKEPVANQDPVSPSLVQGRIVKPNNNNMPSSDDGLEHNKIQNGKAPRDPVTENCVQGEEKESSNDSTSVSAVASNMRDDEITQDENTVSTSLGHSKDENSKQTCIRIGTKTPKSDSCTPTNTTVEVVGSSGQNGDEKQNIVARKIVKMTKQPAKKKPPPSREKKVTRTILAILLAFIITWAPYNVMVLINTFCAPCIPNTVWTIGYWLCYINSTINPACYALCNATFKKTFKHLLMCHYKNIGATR
5-hydroxytryptamine receptor 3A (Homo sapiens), sequence (P46098 whole entry): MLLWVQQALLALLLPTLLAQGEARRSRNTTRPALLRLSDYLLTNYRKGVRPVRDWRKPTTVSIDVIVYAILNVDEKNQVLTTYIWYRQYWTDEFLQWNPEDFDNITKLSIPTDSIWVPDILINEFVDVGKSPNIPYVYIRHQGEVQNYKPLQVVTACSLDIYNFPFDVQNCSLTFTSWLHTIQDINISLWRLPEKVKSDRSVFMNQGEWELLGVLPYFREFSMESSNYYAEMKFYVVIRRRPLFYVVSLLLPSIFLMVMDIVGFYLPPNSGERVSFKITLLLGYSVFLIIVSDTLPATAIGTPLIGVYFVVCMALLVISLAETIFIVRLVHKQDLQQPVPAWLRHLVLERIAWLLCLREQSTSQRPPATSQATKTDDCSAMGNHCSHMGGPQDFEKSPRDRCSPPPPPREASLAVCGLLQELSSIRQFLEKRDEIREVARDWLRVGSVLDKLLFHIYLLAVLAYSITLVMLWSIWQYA
Cytochrome P450 2C19, sequence (P33261 whole entry): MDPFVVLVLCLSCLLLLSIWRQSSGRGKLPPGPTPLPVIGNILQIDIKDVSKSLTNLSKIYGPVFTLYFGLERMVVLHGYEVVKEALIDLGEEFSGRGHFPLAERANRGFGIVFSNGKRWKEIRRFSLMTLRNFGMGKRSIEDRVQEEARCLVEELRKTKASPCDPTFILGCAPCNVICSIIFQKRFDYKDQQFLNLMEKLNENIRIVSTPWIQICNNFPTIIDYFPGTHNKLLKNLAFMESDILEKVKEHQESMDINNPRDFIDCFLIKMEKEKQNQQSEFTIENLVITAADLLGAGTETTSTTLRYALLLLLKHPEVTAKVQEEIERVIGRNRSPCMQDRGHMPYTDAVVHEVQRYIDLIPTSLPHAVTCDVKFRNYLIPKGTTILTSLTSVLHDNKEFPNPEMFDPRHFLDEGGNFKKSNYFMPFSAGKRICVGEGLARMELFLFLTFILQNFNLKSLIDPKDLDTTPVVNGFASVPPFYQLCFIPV
Cyclin-dependent kinase 5/CDK5 activator 1 (Homo sapiens), sequence (Q00535 whole entry, the tested form may be a part): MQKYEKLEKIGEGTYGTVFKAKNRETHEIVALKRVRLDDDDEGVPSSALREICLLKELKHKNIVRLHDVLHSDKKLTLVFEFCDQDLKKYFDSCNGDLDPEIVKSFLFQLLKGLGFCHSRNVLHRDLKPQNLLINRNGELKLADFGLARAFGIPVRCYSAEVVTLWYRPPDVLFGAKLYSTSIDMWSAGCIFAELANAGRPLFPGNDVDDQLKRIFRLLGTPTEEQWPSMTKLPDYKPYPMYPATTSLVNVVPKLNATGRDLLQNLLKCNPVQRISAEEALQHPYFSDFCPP
Cyclin-dependent kinase 5/CDK5 activator 1 (Homo sapiens), sequence (Q15078 99-307 partner limits assumed): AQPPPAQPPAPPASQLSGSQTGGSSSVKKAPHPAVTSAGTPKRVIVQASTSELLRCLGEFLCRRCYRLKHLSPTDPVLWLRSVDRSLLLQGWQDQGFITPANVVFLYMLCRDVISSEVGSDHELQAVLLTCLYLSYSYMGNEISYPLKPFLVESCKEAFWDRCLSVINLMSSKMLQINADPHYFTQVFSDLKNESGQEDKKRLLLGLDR
Vasopressin V1a receptor, sequence (P37288 whole entry, looked up): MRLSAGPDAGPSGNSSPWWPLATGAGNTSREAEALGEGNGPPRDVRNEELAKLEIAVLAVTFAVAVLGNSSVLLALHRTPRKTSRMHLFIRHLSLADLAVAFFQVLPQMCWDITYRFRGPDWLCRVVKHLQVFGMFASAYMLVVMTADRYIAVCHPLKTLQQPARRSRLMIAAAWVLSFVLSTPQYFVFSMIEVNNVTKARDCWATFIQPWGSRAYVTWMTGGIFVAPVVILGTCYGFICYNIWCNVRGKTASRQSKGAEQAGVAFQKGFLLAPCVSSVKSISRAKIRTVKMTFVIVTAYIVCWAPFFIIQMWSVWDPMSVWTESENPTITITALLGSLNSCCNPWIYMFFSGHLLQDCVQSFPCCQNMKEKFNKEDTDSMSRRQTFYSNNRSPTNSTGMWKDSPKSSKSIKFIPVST
Epidermal growth factor receptor (Homo sapiens), sequence (P00533 whole entry, the tested form may be a part): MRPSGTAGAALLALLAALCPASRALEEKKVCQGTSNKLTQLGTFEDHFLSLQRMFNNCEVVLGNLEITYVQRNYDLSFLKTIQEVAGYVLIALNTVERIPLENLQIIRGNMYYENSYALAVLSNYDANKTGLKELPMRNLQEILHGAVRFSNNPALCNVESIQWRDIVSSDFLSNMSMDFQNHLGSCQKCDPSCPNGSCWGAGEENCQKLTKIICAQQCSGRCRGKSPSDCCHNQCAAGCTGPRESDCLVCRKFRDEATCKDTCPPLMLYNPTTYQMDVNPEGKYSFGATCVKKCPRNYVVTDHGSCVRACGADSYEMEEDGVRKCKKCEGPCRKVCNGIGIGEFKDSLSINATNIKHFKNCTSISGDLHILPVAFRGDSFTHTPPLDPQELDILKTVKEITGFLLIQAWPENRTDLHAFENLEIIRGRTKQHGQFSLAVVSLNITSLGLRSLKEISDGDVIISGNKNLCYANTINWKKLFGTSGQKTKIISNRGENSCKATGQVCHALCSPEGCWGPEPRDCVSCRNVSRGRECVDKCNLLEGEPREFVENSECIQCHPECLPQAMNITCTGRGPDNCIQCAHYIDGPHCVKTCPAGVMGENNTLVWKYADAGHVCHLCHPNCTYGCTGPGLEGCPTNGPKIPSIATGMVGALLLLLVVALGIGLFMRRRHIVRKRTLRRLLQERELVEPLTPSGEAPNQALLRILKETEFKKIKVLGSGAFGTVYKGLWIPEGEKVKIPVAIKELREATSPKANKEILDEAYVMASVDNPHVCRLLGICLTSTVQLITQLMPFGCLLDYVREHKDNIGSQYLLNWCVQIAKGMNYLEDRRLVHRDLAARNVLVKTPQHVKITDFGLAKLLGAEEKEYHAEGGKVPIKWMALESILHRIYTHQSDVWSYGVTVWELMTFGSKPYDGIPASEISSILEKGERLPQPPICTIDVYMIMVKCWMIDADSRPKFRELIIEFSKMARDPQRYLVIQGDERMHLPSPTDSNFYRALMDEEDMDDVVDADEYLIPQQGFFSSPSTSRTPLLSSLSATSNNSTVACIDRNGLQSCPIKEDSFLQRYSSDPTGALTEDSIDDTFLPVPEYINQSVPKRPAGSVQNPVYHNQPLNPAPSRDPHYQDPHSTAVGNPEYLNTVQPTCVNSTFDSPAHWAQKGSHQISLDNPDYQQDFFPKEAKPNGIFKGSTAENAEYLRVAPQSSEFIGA
Histamine H1 receptor, sequence (P35367 whole entry): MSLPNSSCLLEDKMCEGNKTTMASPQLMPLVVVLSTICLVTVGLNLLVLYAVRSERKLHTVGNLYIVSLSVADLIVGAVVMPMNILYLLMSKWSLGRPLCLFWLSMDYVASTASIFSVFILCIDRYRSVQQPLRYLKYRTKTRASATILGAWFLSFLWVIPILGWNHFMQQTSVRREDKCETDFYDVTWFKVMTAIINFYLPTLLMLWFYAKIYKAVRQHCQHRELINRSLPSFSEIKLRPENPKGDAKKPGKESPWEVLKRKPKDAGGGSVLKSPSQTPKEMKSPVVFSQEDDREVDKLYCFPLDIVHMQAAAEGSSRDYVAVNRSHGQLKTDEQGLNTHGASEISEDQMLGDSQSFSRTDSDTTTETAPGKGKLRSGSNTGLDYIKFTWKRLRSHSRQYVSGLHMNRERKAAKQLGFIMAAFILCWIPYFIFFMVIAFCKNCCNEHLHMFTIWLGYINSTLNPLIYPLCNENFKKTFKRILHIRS

`CC(C)(C)NS(=O)(=O)c1ccc(-c2sc(C(=O)N[C@H]3C[C@H](C(=O)O)C3)nc2CC2CCCCC2)c2ccccc12` gave an EC50 [1] of 2.8 nM, an inhibition [2] of under 10% and an inhibition [3] of under 10%. It also gave an inhibition (Rattus norvegicus [4]) of under 10%, an inhibition [5] of 54% and an inhibition [6] of 12%. It also gave an inhibition [7] of under 10%, an inhibition [8] of under 10% and an inhibition (Rattus norvegicus [9]) of 11%. It also gave an inhibition [10] of 24%, an inhibition [11] of under 10% and an inhibition [12] of 12%. For the same compound, the inhibition [13] was under 10%, the inhibition [14] was under 10% and the inhibition (Vasopressin V1a receptor) was under 10%. It also gave an inhibition [15] of under 10%, an inhibition (Homo sapiens) of 14% and an IC50 [16] of 297 nM. It also gave an IC50 (D(2) dopamine receptor) of 1.8 nM, an IC50 (Histamine H1 receptor) of 1.7 nM and an IC50 (Substance-K receptor) of 1.2 nM. For the same compound, the IC50 [17] was 220 nM, the inhibition [18] was -4% and the inhibition [19] was -3%. The inhibition [20] was 0%, the inhibition [21] was -4% and the INH (Cytochrome P450 2C19) was over 10 µM. For the same compound, the C0 [22] was 4430 ng/mL and the Tmax [23] was 48 min.
